According to patent US5137892A, “Quinoline, naphthyridine and pyridobenzoxazine derivatives” (Abbott Laboratories, priority 1990, dated 1992):
≈ marks a conversion by molar mass, not a printed value.

What was measured:
Assay in all cases: In Vitro Antibacterial Activity, agar dilution MIC
Format in all cases: cell-based
Acinetobacter SP CMX 699 = conditions: BHI agar dilution, 20-24 hours, unit assumed
Method: (§1) The activity of the compounds of the present invention was tested against a wide variety of bacteria using standard assay procedures. Minimum inhibitory concentrations (MICs) were determined by the agar dilution method, described below, using Brain Heart Infusion agar.
(§2) Twelve petri dishes were prepared, each containing successive aqueous 2-fold dilutions of the test compounds mixed with 10 mL of sterilized Brain Heart Infusion (BHI) agar. Each plate was inoculated with 100-fold (or 10-fold, for slow-growing strains such as Micrococcus and Streptococcus) dilutions of up to 32 different microorganisms using a Steers replicator block calibrated to deliver approximately 10^4 colony forming units (CFUs). The inoculated plates were incubated at about 35°-37° C. for approximately 20-24 hours. In addition, a control plate, using BHI agar containing no test compound, was prepared and incubated at the beginning and at the end of each test. Ciprofloxacin was used as the reference antibiotic.
(§3) The MIC was defined as the lowest concentration of test compound yielding no growth (a slight haze or sparsely isolated colonies at the inoculum spot as compared to the growth control contaning no test compound.

[1] = system: Enterobacter aerogenes ATCC 13048; conditions: E. aerogenes ATCC 13048; BHI agar dilution, 20-24 hours; unit assumed
Method: as §1, §2, §3

[2] = system: Enterococcus faecium ATCC 8043; conditions: E. faecium ATCC 8043; BHI agar dilution, 20-24 hours; unit assumed
Method: as §1, §2, §3

Escherichia coli DC-2 = conditions: E. coli DC-2; BHI agar dilution, 20-24 hours; unit assumed
Method: as §1, §2, §3

Escherichia coli H560 = conditions: E. coli H560; BHI agar dilution, 20-24 hours; unit assumed
Method: as §1, §2, §3

Escherichia coli JUHL = conditions: E. coli JUHL; BHI agar dilution, 20-24 hours; unit assumed
Method: as §1, §2, §3

Escherichia coli KNK 437 = conditions: E. coli KNK 437; BHI agar dilution, 20-24 hours; unit assumed
Method: as §1, §2, §3

Escherichia coli SS = conditions: E. coli SS; BHI agar dilution, 20-24 hours; unit assumed
Method: as §1, §2, §3

[3] = system: Klebsiella pneumoniae ATCC 8045; conditions: K. pneumoniae ATCC 8045; BHI agar dilution, 20-24 hours; unit assumed
Method: as §1, §2, §3

[4] = system: Micrococcus luteus ATCC 4698; conditions: M. luteus ATCC 4698; BHI agar dilution, 20-24 hours; unit assumed
Method: as §1, §2, §3

[5] = system: Micrococcus luteus ATCC 9341; conditions: M. luteus ATCC 9341; BHI agar dilution, 20-24 hours; unit assumed
Method: as §1, §2, §3

[6] = system: Providencia stuartii CMX 640; conditions: P. stuartii CMX 640; BHI agar dilution, 20-24 hours; unit assumed
Method: as §1, §2, §3

[7] = system: Pseudomonas aeruginosa A5007; conditions: P. aeruginosa A5007; BHI agar dilution, 20-24 hours; unit assumed
Method: as §1, §2, §3

[8] = system: Pseudomonas aeruginosa BMH10; conditions: P. aeruginosa BMH10; BHI agar dilution, 20-24 hours; unit assumed
Method: as §1, §2, §3

[9] = system: Pseudomonas aeruginosa K799/WT; conditions: P. aeruginosa K799/WT; BHI agar dilution, 20-24 hours; unit assumed
Method: as §1, §2, §3

Pseudomonas cepacia 2961 = conditions: P. cepacia 2961; BHI agar dilution, 20-24 hours; unit assumed
Method: as §1, §2, §3

[10] = system: Staphylococcus aureus 45 RAR2; conditions: S. aureus 45 RAR2; BHI agar dilution, 20-24 hours; unit assumed
Method: as §1, §2, §3

Staphylococcus aureus 45 = conditions: S. aureus 45; BHI agar dilution, 20-24 hours; unit assumed
Method: as §1, §2, §3

[11] = system: Staphylococcus aureus 642A; conditions: S. aureus 642A; BHI agar dilution, 20-24 hours; unit assumed
Method: as §1, §2, §3

[12] = system: Staphylococcus aureus A5177; conditions: S. aureus A5177; BHI agar dilution, 20-24 hours; unit assumed
Method: as §1, §2, §3

[13] = system: Staphylococcus aureus ATCC 6538P; conditions: S. aureus ATCC 6538P; BHI agar dilution, 20-24 hours; unit assumed
Method: as §1, §2, §3

[14] = system: Staphylococcus aureus CMX 553; conditions: S. aureus CMX 553; BHI agar dilution, 20-24 hours; unit assumed
Method: as §1, §2, §3

[15] = system: Staphylococcus aureus NCTC 10649; conditions: S. aureus NCTC 10649; BHI agar dilution, 20-24 hours; unit assumed
Method: as §1, §2, §3

[16] = system: Staphylococcus epidermidis 3519; conditions: S. epidermidis 3519; BHI agar dilution, 20-24 hours; unit assumed
Method: as §1, §2, §3

[17] = system: Streptococcus agalactaciae CMX 508; conditions: S. agalactaciae CMX 508; BHI agar dilution, 20-24 hours; unit assumed
Method: as §1, §2, §3

[18] = system: Streptococcus bovis A5169; conditions: S. bovis A5169; BHI agar dilution, 20-24 hours; unit assumed
Method: as §1, §2, §3

[19] = system: Streptococcus pyogenes 2548 INDUC; conditions: S. pyogenes 2548 INDUC; BHI agar dilution, 20-24 hours; unit assumed
Method: as §1, §2, §3

[20] = system: Streptococcus pyogenes 930 CONST; conditions: S. pyogenes 930 CONST; BHI agar dilution, 20-24 hours; unit assumed
Method: as §1, §2, §3

[21] = system: Streptococcus pyogenes EES61; conditions: S. pyogenes EES61; BHI agar dilution, 20-24 hours; unit assumed
Method: as §1, §2, §3

Which MIC values (Acinetobacter SP CMX 699) does the source give for `CN(C)CC1COC2(CCN(c3nc4c(cc3F)c(=O)c(C(=O)O)cn4-c3ccc(F)cc3F)C2)O1` (centres unmarked) [Example 445] here?
The MIC values was 6.2 µg/mL (≈ 12.3 µM).

And the MIC values [1]?
Its MIC values is 3.1 µg/mL (≈ 6.15 µM).

What about the MIC values [2] of the same molecule?
Its MIC values is 1.56 µg/mL (≈ 3.09 µM).

And the MIC values (Escherichia coli DC-2)?
Its MIC values is 12.5 µg/mL (≈ 24.8 µM).

And the MIC values (Escherichia coli H560)?
The MIC values was 1.56 µg/mL (≈ 3.09 µM).

And the MIC values (Escherichia coli JUHL)?
The MIC values was 1.56 µg/mL (≈ 3.09 µM).

And the MIC values (Escherichia coli KNK 437)?
Its MIC values is 12.5 µg/mL (≈ 24.8 µM).

What about the MIC values (Escherichia coli SS) of the same molecule?
Its MIC values is 0.2 µg/mL (≈ 0.396 µM).

And the MIC values [3]?
Its MIC values is 1.56 µg/mL (≈ 3.09 µM).

What about the MIC values [4] of the same molecule?
Its MIC values is 12.5 µg/mL (≈ 24.8 µM).

And the MIC values [5]?
Its MIC values is 12.5 µg/mL (≈ 24.8 µM).

And the MIC values [6]?
The MIC values was over 100 µg/mL.

What about the MIC values [7] of the same molecule?
The MIC values was 12.5 µg/mL (≈ 24.8 µM).

What about the MIC values [8] of the same molecule?
The MIC values was 12.5 µg/mL (≈ 24.8 µM).

And the MIC values [9]?
The MIC values was 12.5 µg/mL (≈ 24.8 µM).

And the MIC values (Pseudomonas cepacia 2961)?
The MIC values was 50 µg/mL (≈ 99.1 µM).

And the MIC values [10]?
The MIC values was 0.78 µg/mL (≈ 1.55 µM).

And the MIC values (Staphylococcus aureus 45)?
The MIC values was 0.39 µg/mL (≈ 0.773 µM).

What about the MIC values [11] of the same molecule?
Its MIC values is 0.39 µg/mL (≈ 0.773 µM).

What about the MIC values [12] of the same molecule?
Its MIC values is 0.39 µg/mL (≈ 0.773 µM).

And the MIC values [13]?
The MIC values was 0.2 µg/mL (≈ 0.396 µM).

What about the MIC values [14] of the same molecule?
Its MIC values is 0.39 µg/mL (≈ 0.773 µM).

And the MIC values [15]?
Its MIC values is 0.2 µg/mL (≈ 0.396 µM).

And the MIC values [16]?
The MIC values was 0.39 µg/mL (≈ 0.773 µM).

And the MIC values [17]?
The MIC values was 1.58 µg/mL (≈ 3.13 µM).

And the MIC values [18]?
The MIC values was 1.56 µg/mL (≈ 3.09 µM).

And the MIC values [19]?
Its MIC values is 0.2 µg/mL (≈ 0.396 µM).

What about the MIC values [20] of the same molecule?
The MIC values was 0.78 µg/mL (≈ 1.55 µM).

And the MIC values [21]?
The MIC values was 0.78 µg/mL (≈ 1.55 µM).
